Laboratory results from ChEMBL document CHEMBL1201862, “PubChem BioAssay data set” (2004).
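In this assay, cells in 96-well plates receive the compound at five concentrations for 48 hours. Endpoints are linearly interpolated between the surrounding concentrations. GI50: concentration for 50% inhibition of growth.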 Calls of active or inactive are those of the source. No stated cut-off is given here; in the data, active = GI50 up to about 1.1 µM and inactive = higher.

Key:
Test in all cases: NCI-60 cell line screen, 48 h
CCRF-CEM = tested on: CCRF-CEM
K562 = tested on: K562
SF-268 = tested on: SF-268
OVCAR-8 = tested on: OVCAR-8
SN12C = tested on: SN12C
SK-MEL-28 = tested on: SK-MEL-28
UO-31 = tested on: UO-31
786-0 = tested on: 786-0
TK-10 = tested on: TK-10
A549 = tested on: A549
SK-MEL-5 = tested on: SK-MEL-5
UACC-62 = tested on: UACC-62
NCI-H522 = tested on: NCI-H522
SW-620 = tested on: SW-620
PC-3 = tested on: PC-3
MDA-MB-435 = tested on: MDA-MB-435
M14 = tested on: M14
HCC 2998 = tested on: HCC 2998
DU-145 = tested on: DU-145
OVCAR-3 = tested on: OVCAR-3
HOP-62 = tested on: HOP-62
SK-MEL-2 = tested on: SK-MEL-2
MCF7 = tested on: MCF7
OVCAR-5 = tested on: OVCAR-5
T47D = tested on: T47D
SF-539 = tested on: SF-539
SF-295 = tested on: SF-295
SK-OV-3 = tested on: SK-OV-3
HT-29 = tested on: HT-29
IGROV-1 = tested on: IGROV-1
HCT-116 = tested on: HCT-116
A498 = tested on: A498
MDA-MB-231 = tested on: MDA-MB-231
U-251 = tested on: U-251
LOX IMVI = tested on: LOX IMVI
EKVX = tested on: EKVX
NCI-H23 = tested on: NCI-H23
HOP-92 = tested on: HOP-92
NCI-H226 = tested on: NCI-H226
MDA-N = tested on: MDA-N
SNB-75 = tested on: SNB-75
CAKI-1 = tested on: CAKI-1
UACC-257 = tested on: UACC-257
COLO 205 = tested on: COLO 205
NCI/ADR-RES = tested on: NCI/ADR-RES
OVCAR-4 = tested on: OVCAR-4
KM12 = tested on: KM12
Hs-578T = tested on: Hs-578T
HL-60 = tested on: HL-60
RXF 393 = tested on: RXF 393
MOLT-4 = tested on: MOLT-4
NCI-H460 = tested on: NCI-H460
ACHN = tested on: ACHN
SNB-19 = tested on: SNB-19
BT-549 = tested on: BT-549
HCT-15 = tested on: HCT-15
Malme-3M = tested on: Malme-3M
SR = tested on: SR

SMILES: CC1CNC(c2ccc(CN3CCC(CCCC4CCN(Cc5ccc(C6=NC(C)CN6)cc5)CC4)CC3)cc2)=N1 (stereo not drawn)
- GI50 (CCRF-CEM): 19.5 µM (inactive)
- GI50 (K562): 35 µM (inactive)
- GI50 (SF-268): > 100 µM (inactive)
- GI50 (OVCAR-8): 71.3 µM (inactive)
- GI50 (SN12C): 84.7 µM (inactive)
- GI50 (SK-MEL-28): > 100 µM (inactive)
- GI50 (UO-31): > 100 µM (inactive)
- GI50 (786-0): > 100 µM (inactive)
- GI50 (TK-10): 75.3 µM (inactive)
- GI50 (A549): 66.1 µM (inactive)
- GI50 (SK-MEL-5): > 100 µM (inactive)
- GI50 (UACC-62): 59.8 µM (inactive)
- GI50 (NCI-H522): 23.5 µM (inactive)
- GI50 (SW-620): 30.5 µM (inactive)
- GI50 (PC-3): 36.8 µM (inactive)
- GI50 (MDA-MB-435): 17.2 µM (inactive)
- GI50 (M14): 62.5 µM (inactive)
- GI50 (HCC 2998): 14.8 µM (inactive)
- GI50 (DU-145): 45.8 µM (inactive)
- GI50 (OVCAR-3): > 100 µM (inactive)
- GI50 (HOP-62): 32.2 µM (inactive)
- GI50 (SK-MEL-2): 21.7 µM (inactive)
- GI50 (MCF7): 19.8 µM (inactive)
- GI50 (OVCAR-5): 25.3 µM (inactive)
- GI50 (T47D): 50 µM (inactive)
- GI50 (SF-539): 29.6 µM (inactive)
- GI50 (SF-295): > 100 µM (inactive)
- GI50 (SK-OV-3): 25.5 µM (inactive)
- GI50 (HT-29): 30.9 µM (inactive)
- GI50 (IGROV-1): > 100 µM (inactive)
- GI50 (HCT-116): 29 µM (inactive)
- GI50 (A498): > 100 µM (inactive)
- GI50 (MDA-MB-231): 21.2 µM (inactive)
- GI50 (U-251): 35 µM (inactive)
- GI50 (LOX IMVI): 82.4 µM (inactive)
- GI50 (EKVX): 32.2 µM (inactive)
- GI50 (NCI-H23): > 100 µM (inactive)
- GI50 (HOP-92): 26 µM (inactive)
- GI50 (NCI-H226): 32.9 µM (inactive)
- GI50 (MDA-N): 17.5 µM (inactive)
- GI50 (SNB-75): 23.4 µM (inactive)
- GI50 (CAKI-1): > 100 µM (inactive)
- GI50 (UACC-257): 18.8 µM (inactive)
- GI50 (COLO 205): 17.6 µM (inactive)
- GI50 (NCI/ADR-RES): > 100 µM (inactive)
- GI50 (OVCAR-4): 19.7 µM (inactive)
- GI50 (KM12): 16.9 µM (inactive)
- GI50 (Hs-578T): > 100 µM (inactive)
- GI50 (HL-60): > 100 µM (inactive)
- GI50 (RXF 393): 27.4 µM (inactive)
- GI50 (MOLT-4): 19.4 µM (inactive)
- GI50 (NCI-H460): 18.5 µM (inactive)
- GI50 (ACHN): > 100 µM (inactive)
- GI50 (SNB-19): 24.5 µM (inactive)
- GI50 (BT-549): > 100 µM (inactive)
- GI50 (HCT-15): > 100 µM
- GI50 (Malme-3M): > 100 µM (inactive)

SMILES: COP(=O)(OC)[C@@](O)(c1ccccc1)[C@@H](O)[C@H](O)c1ccccc1
- GI50 (CCRF-CEM): 18.3 µM (inactive)
- GI50 (K562): 60.1 µM (inactive)
- GI50 (SF-268): > 100 µM (inactive)
- GI50 (OVCAR-8): > 100 µM (inactive)
- GI50 (SN12C): > 100 µM (inactive)
- GI50 (SK-MEL-28): > 100 µM (inactive)
- GI50 (UO-31): > 100 µM (inactive)
- GI50 (786-0): 98.6 µM (inactive)
- GI50 (TK-10): > 100 µM (inactive)
- GI50 (A549): > 100 µM (inactive)
- GI50 (SK-MEL-5): > 100 µM (inactive)
- GI50 (UACC-62): > 100 µM (inactive)
- GI50 (NCI-H522): > 100 µM (inactive)
- GI50 (SW-620): 42.2 µM (inactive)
- GI50 (PC-3): > 100 µM (inactive)
- GI50 (MDA-MB-435): > 100 µM (inactive)
- GI50 (M14): > 100 µM (inactive)
- GI50 (DU-145): > 100 µM (inactive)
- GI50 (OVCAR-3): > 100 µM (inactive)
- GI50 (SR): > 100 µM (inactive)
- GI50 (SK-MEL-2): > 100 µM (inactive)
- GI50 (MCF7): 22.5 µM (inactive)
- GI50 (OVCAR-5): > 100 µM (inactive)
- GI50 (T47D): > 100 µM (inactive)
- GI50 (SF-539): 38.4 µM (inactive)
- GI50 (SF-295): > 100 µM (inactive)
- GI50 (SK-OV-3): > 100 µM (inactive)
- GI50 (HT-29): > 100 µM (inactive)
- GI50 (IGROV-1): > 100 µM (inactive)
- GI50 (HCT-116): 36 µM (inactive)
- GI50 (A498): > 100 µM (inactive)
- GI50 (MDA-MB-231): > 100 µM (inactive)
- GI50 (U-251): > 100 µM (inactive)
- GI50 (LOX IMVI): 21.1 µM (inactive)
- GI50 (EKVX): > 100 µM (inactive)
- GI50 (NCI-H23): > 100 µM (inactive)
- GI50 (HOP-92): > 100 µM (inactive)
- GI50 (NCI-H226): > 100 µM (inactive)
- GI50 (MDA-N): > 100 µM (inactive)
- GI50 (SNB-75): > 100 µM (inactive)
- GI50 (CAKI-1): > 100 µM (inactive)
- GI50 (UACC-257): > 100 µM (inactive)
- GI50 (COLO 205): > 100 µM (inactive)
- GI50 (NCI/ADR-RES): > 100 µM (inactive)
- GI50 (OVCAR-4): > 100 µM (inactive)
- GI50 (KM12): > 100 µM (inactive)
- GI50 (Hs-578T): > 100 µM (inactive)
- GI50 (HL-60): > 100 µM (inactive)
- GI50 (RXF 393): > 100 µM (inactive)
- GI50 (MOLT-4): > 100 µM (inactive)
- GI50 (NCI-H460): > 100 µM (inactive)
- GI50 (ACHN): > 100 µM (inactive)
- GI50 (SNB-19): > 100 µM (inactive)
- GI50 (BT-549): > 100 µM (inactive)
- GI50 (HCT-15): > 100 µM
- GI50 (Malme-3M): > 100 µM (inactive)
